Measured values taken from patent US10618901B2 (GlaxoSmithKline Intellectual Property Development Limited, priority 2014, dated 2020).
Like-named read-outs stand apart in the source and are kept apart here.

Target: T1, LRRK2 Ser935 phosphorylation in SH-SY5Y cells over-expressing recombinant full length LRRK2 (Homo sapiens, UniProt Q5S007)
T1 construct: A BacMam virus expressing full length recombinant LRRK2 was purchased from Invitrogen; host or cells: SH-SY5Y (BacMam transduction)
Test: Recombinant cellular LRRK2 AlphaScreen assay
Type: cell-based
Outline: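 SH-SY5Y cells transduced with BacMam full-length LRRK2 (MOI 50, 24 h) were treated with compound, top final 10 uM, for 60 min at 37° C. Lysates were assayed by AlphaScreen for pSer935 and total LRRK2. Dose-response fitted to a sigmoidal model.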

[1] = LRRK2 Ser935 phosphorylation, 60 minutes, read-out: recombinant cellcular LRRK2 alphaScreen assay (pIC50) (converted)
[2] = read-out: pIC50 in the recombinant cellular LRRK2 alphaScreen assay (converted)
[3] = LRRK2 Ser935 phosphorylation, 60 minutes

T1 sequence (Q5S007 whole entry): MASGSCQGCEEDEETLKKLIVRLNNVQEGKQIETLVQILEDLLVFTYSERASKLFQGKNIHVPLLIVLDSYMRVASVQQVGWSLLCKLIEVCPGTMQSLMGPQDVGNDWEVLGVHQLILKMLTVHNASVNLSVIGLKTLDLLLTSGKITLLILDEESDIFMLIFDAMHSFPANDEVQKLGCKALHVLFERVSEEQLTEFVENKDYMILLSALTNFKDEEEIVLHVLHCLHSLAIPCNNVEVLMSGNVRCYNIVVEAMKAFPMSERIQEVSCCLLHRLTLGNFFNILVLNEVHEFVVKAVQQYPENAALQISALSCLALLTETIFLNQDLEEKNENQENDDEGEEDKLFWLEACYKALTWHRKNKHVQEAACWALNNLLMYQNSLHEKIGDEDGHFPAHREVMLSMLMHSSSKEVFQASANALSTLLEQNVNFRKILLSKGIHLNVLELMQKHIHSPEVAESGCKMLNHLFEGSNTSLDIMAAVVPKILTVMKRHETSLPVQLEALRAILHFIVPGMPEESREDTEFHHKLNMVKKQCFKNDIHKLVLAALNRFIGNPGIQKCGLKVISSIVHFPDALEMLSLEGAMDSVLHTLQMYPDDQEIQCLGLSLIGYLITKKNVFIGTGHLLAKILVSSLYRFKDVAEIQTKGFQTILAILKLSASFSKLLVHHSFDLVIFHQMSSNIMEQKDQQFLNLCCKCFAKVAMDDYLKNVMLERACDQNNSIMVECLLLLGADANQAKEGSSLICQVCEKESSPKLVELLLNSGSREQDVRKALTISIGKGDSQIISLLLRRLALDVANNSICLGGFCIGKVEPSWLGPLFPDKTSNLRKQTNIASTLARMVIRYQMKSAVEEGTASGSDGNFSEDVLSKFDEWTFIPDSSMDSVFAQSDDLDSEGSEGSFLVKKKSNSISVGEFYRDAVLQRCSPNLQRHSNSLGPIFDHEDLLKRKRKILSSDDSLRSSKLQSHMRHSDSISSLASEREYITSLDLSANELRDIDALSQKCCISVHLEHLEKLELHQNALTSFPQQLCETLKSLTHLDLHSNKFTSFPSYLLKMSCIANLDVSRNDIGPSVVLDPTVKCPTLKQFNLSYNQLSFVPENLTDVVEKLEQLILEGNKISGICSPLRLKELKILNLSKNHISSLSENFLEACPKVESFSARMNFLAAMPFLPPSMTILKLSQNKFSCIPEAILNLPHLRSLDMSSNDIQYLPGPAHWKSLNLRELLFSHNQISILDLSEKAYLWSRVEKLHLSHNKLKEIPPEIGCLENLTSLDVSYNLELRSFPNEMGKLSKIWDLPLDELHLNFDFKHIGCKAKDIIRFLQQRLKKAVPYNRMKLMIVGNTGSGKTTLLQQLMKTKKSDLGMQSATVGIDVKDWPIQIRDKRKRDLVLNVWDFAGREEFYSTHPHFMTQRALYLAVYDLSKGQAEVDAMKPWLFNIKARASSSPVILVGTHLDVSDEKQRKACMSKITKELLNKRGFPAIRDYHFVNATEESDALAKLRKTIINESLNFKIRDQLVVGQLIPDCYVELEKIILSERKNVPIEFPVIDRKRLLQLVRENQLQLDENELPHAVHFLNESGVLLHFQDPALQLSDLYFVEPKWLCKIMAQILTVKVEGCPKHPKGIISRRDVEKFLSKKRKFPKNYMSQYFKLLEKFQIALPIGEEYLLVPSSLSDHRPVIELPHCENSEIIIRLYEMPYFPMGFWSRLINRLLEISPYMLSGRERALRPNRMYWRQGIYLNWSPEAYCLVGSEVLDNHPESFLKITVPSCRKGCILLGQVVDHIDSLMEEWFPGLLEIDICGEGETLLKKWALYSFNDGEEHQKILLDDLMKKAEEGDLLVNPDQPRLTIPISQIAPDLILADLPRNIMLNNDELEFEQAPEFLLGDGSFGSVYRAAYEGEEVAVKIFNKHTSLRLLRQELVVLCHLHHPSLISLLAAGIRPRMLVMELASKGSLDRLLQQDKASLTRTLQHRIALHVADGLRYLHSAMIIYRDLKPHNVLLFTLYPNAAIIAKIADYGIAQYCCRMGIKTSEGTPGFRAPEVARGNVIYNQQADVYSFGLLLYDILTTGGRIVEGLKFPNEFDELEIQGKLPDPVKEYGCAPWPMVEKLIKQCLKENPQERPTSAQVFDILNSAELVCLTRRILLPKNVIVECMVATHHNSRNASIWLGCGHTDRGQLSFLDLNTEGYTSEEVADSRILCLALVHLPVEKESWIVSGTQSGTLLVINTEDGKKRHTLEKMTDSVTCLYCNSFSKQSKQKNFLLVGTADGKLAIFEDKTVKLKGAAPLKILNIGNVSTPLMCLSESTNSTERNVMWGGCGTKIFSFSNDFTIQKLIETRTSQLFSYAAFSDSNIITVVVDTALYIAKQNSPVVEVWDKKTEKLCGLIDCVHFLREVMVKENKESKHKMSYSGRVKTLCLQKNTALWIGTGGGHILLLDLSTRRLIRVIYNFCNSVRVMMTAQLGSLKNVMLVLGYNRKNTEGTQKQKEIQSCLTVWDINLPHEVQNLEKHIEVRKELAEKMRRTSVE

Row | IC50 [1] | IC50 [2] | recombinant cellcular LRRK2 alphaScreen assay (pIC50) [3] | Molecule
1 | 5.01 nM |  |  | CCOc1nc(Nc2cnn(C3CCN(C4COC4)CC3(F)F)c2Cl)nc2[nH]ccc12 (single isomer, unassigned) [Example E134, N-(5-chloro-1-(3,3-difluoro-1-(oxetan-3-yl)piperidin-4-yl)-1H-pyrazol-4-yl)-4-ethoxy-7H-pyrrolo[2,3-d]pyrimidin-2-amine]
2 | 25.1 nM | ≤ 100 nM |  | CCOc1nc(Nc2cnn(C3CCOCC3C)c2C)nc2[nH]ccc12 (single isomer, unassigned) [Example E113, (cis)-4-ethoxy-N-(5-methyl-1-(3-methyltetrahydro-2H-pyran-4-yl)-1H-pyrazol-4-yl)-7H-pyrrolo[2,3-d]pyrimidin-2-amine]
3 | 0.631 nM | ≤ 100 nM |  | CCOc1nc(Nc2cnn(C3CN(C)CCC3(F)F)c2C)nc2[nH]ccc12 (single isomer, unassigned) [Example E121, N-(1-(4,4-difluoro-1-methylpiperidin-3-yl)-5-methyl-1H-pyrazol-4-yl)-4-ethoxy-7H-pyrrolo[2,3-d]pyrimidin-2-amine]
4 |  |  | 7.8 | cis-3-(4-((4-ethoxy-7H-pyrrolo[2,3-d]pyrimidin-2-yl)amino)-5-methyl-1H-pyrazol-1-yl)cyclopentanol [Example E56]
5 | 25.1 nM | ≤ 100 nM |  | CCOc1nc(Nc2cnn([C@@H]3CCN(C4COC4)C[C@H]3F)c2Cl)nc2[nH]ccc12 (single isomer, unassigned) [Example E105]
6 | 0.794 nM |  |  | CCOc1nc(Nc2cnn(C3CN(C4COC4)CCC3(F)F)c2Cl)nc2[nH]ccc12 (single isomer, unassigned) [Example E124, N-(5-chloro-1-(4,4-difluoro-1-(oxetan-3-yl)piperidin-3-yl)-1H-pyrazol-4-yl)-4-ethoxy-7H-pyrrolo[2,3-d]pyrimidin-2-amine]
7 |  | ≤ 100 nM |  | CCOc1nc(Nc2cnn(CCOC)c2Cl)nc2[nH]ccc12 [Example E21, N-(5-chloro-1-(2-methoxyethyl)-1H-pyrazol-4-yl)-4-ethoxy-7H-pyrrolo-[2,3-d]-pyrimidin-2-amine]
8 | 31.6 nM | ≤ 100 nM |  | CCOc1nc(Nc2cnn([C@H]3CCN(C4COC4)C[C@@H]3F)c2Cl)nc2[nH]ccc12 (single isomer, unassigned) [Example E104]
9 | 20 nM | ≤ 100 nM |  | CCOc1nc(Nc2cnn(CCN3CCOCC3)c2C)nc2[nH]ccc12 [Example E45, 4-ethoxy-N-(5-methyl-1-(2-morpholinoethyl)-1H-pyrazol-4-yl)-7H-pyrrolo-[2,3-d]pyrimidin-2-amine]
10 |  | ≤ 100 nM |  | CCOc1nc(Nc2cnn(C3CCN(C4COC4)C3)c2C)nc2[nH]ccc12 (single isomer, unassigned) [Example E67, 4-ethoxy-N-(5-methyl-1-(1-(oxetan-3-yl)-pyrrolidin-3-yl)-1H-pyrazol-4-yl)-7H-pyrrolo-[2,3-d]pyrimidin-2-amine]
11 | 63.1 nM | ≤ 100 nM |  | CCOc1nc(Nc2cnn(C3CCN(C)C3)c2C)nc2[nH]ccc12 (single isomer, unassigned) [Example E14, 4-ethoxy-N-(5-methyl-1-(1-methylpyrrolidin-3-yl)-1H-pyrazol-4-yl)-7H-pyrrolo-[2,3-d]-pyrimidin-2-amine]
12 |  |  | 7.8 | trans-2-(4-((4-ethoxy-7H-pyrrolo-[2,3-d]pyrimidin-2-yl)amino)-5-methyl-1H-pyrazol-1-yl)-cyclopentanol [Example E40]
13 | 12.6 nM | ≤ 100 nM |  | CCOc1nc(Nc2cnn(C3CC(O)C3)c2C)nc2[nH]ccc12 (stereo not shown) [Example E52, 3-(4-((4-ethoxy-7H-pyrrolo-[2,3-d]-pyrimidin-2-yl)-amino)-5-methyl-1H-pyrazol-1-yl)cyclo-butanol]
14 | 39.8 nM | ≤ 100 nM |  | CCOc1nc(Nc2cnn(C3CC(N4CCOCC4)C3)c2C)nc2[nH]ccc12 (stereo not shown) [Example E86, 4-ethoxy-N-(5-methyl-1-(3-morpholinocyclobutyl)-1H-pyrazol-4-yl)-7H-pyrrolo[2,3-d] pyrimidin-2-amine]
15 |  | ≤ 100 nM |  | CCOc1nc(Nc2cnn(C3CCCC3(C)O)c2C)nc2[nH]ccc12 (racemic) [Example E70, Trans-2-(4-((4-ethoxy-7H-pyrrolo-[2,3-d]pyrimidin-2-yl)amino)-5-methyl-1H-pyrazol-1-yl)-1-methylcyclopentanol]
16 |  |  | 7.6 | trans-2-(5-chloro-4-((4-ethoxy-7H-pyrrolo-[2,3-d]-pyrimidin-2-yl)amino)-1H-pyrazol-1-yl)-cyclopentanol [Example E37]
17 | 79.4 nM | ≤ 100 nM |  | CCOc1nc(Nc2cnn(CC(C)(C)O)c2C)nc2[nH]ccc12 [Example E3, 1-(4-((4-ethoxy-7H-pyrrolo-[2,3-d]pyrimidin-2-yl)amino)-5-methyl-1H-pyrazol-1-yl)-2-methylpropan-2-ol]
18 |  |  | 7.6 | trans-2-(5-chloro-4-((4-ethoxy-7H-pyrrolo-[2,3-d]-pyrimidin-2-yl)amino)-1H-pyrazol-1-yl)cyclopentanol [Example E38]
19 | 15.8 nM | ≤ 100 nM |  | CCOc1nc(Nc2cnn(C3CN(C4COC4)CCO3)c2Cl)nc2[nH]ccc12 (single isomer, unassigned) [Example E141, N-(5-chloro-1-(4-(oxetan-3-yl)morpholin-2-yl)-1H-pyrazol-4-yl)-4-ethoxy-7H-pyrrolo[2,3-d]pyrimidin-2-amine]
20 |  |  | 7.8 | trans-2-(4-((4-ethoxy-7H-pyrrolo-[2,3-d]pyrimidin-2-yl)amino)-5-methyl-1H-pyrazol-1-yl)-cyclopentanol [Example E41]
21 | 31.6 nM | ≤ 100 nM |  | CCOc1nc(Nc2cnn(CCN3CCO[C@H](C(F)F)C3)c2C)nc2[nH]ccc12 [Example E100, (S)—N-(1-(2-(2-(difluoromethyl)morpholino)ethyl)-5-methyl-1H-pyrazol-4-yl)-4-ethoxy-7H-pyrrolo[2,3-d]pyrimidin-2-amine]
22 | 63.1 nM | ≤ 100 nM |  | CCOc1nc(Nc2cnn(C3CCOCC3)c2C2CC2)nc2[nH]ccc12 [Example E44, N-(5-cyclopropyl-1-(tetrahydro-2H-pyran-4-yl)-1H-pyrazol-4-yl)-4-ethoxy-7H-pyrrolo-[2,3-d]pyrimidin-2-amine]
